Calls of active or inactive are those of the source. The calls are words filed in the database; no cut-off is given here.
Legend:
[1] = Binding affinity to antisense i-hTERT DNA assessed as dissociation constant by ITC analysis; design: species or system Homo sapiens
[2] = Upregulation of ZFP36L1 gene expression in human MDA-MB-231 cells assessed as fold change at 1 uM measured after 48 hrs by RNA-seq analysis relative to control; format: functional
[3] = biological target: Quadruplex DNA; assay: Binding affinity to Bcl-2 G4 DNA (unknown origin) assessed as dissociation constant by ITC analysis; format: nucleic-acid assay
[4] = tested on: MDA-MB-231; assay: Cytotoxicity against human MDA-MB-231 cells without hTERT overexpression assessed as inhibition of cell growth measured after 48 hrs by MTT assay; format: functional, cell-based; conditions: MDA-MB-231, 48 h
[5] = tested on: MDA-MB-231; assay: Downregulation of Artemis transcription level in human MDA-MB-231 cells at 1 uM measured after 48 hrs by RNA-seq analysis; format: functional, cell-based
[6] = tested on: MDA-MB-231; assay: Downregulation of ND2 gene expression in human MDA-MB-231 cells at 1 uM measured after 48 hrs by RNA-seq analysis; format: functional, cell-based
[7] = tested on: MDA-MB-231; assay: Downregulation of ND3 gene expression in human MDA-MB-231 cells at 1 uM measured after 48 hrs by RNA-seq analysis; format: functional, cell-based
[8] = tested on: Quadruplex DNA; assay: Binding affinity to Bcl-2 G4 DNA (unknown origin) assessed as thermal stability by measuring change in melting temperature at 400 uM […]; format: nucleic-acid assay
[9] = tested on: Quadruplex DNA; assay: Binding affinity to CKIT-2 G4 DNA (unknown origin) assessed as change in gibbs free energy at 400 uM by ITC analysis; format: nucleic-acid assay
[10] = tested on: MDA-MB-231; assay: Antitumor activity against human MDA-MB-231 cells xenografted in iv dosed female Balb/c mouse assessed as nuclear fragmentation in tumor administered via tail vein every 2 days for 16 days by H and E staining based analysis; format: functional, organism-based; conditions: dose 2-5 mg/kg, time 16.0 day
[11] = tested on: MDA-MB-231; assay: Disruption of energy metabolism in human MDA-MB-231 cells assessed as increase in ECAR at 0 to 1.5 uM measured after 2 hrs by Seahorse XF24 analyzer; format: functional, cell-based; conditions: dose 0-1.5 µM
[12] = Toxicity in female Balb/c nude mouse xenografted with human MDA-MB-231 cells assessed as change in […] level at 2 to 5 mg/kg, iv administered via tail vein every 2 days for 16 days; format: organism-based; conditions: in vivo, 384 h, dose 2-5 mg/kg, time 16 day
[13] = biological target: Quadruplex DNA; assay: Binding affinity to CKIT-2 G4 DNA (unknown origin) assessed as dissociation constant by ITC analysis; format: nucleic-acid assay
[14] = Cytotoxicity against HUVEC cells assessed as inhibition of cell growth incubated for 48 hrs by MTT assay; format: toxicity, cell-based; conditions: human
[15] = Drug localization in nucleus of telomerase-positive human MDA-MB-231 cells at 5 uM incubated for 10 mins by Hoechst 33342 staining based confocal microscopic analysis; format: ADME, subcellular; conditions: mda-mb-231, 10 min
[16] = tested on: MDA-MB-231; assay: Downregulation of LC3-I protein expression in human MDA-MB-231 cells at 0 to 1.5 uM measured after 48 hrs by Western blot analysis; format: functional, cell-based; conditions: dose 0-1.5 µM
[17] = tested on: DNA; assay: Binding affinity to Ds26 duplex DNA (unknown origin) assessed as change in gibbs free energy at 400 uM by ITC analysis; format: nucleic-acid assay
[18] = tested on: MDA-MB-231; assay: Downregulation of ND5 gene expression in human MDA-MB-231 cells at 1 uM measured after 48 hrs by RNA-seq analysis; format: functional, cell-based
[19] = tested on: DNA; assay: Binding affinity to Ds26 duplex DNA (unknown origin) assessed as change in enthalpy at 400 uM by ITC analysis; format: nucleic-acid assay
[20] = Toxicity in female Balb/c nude mouse xenografted with human MDA-MB-231 cells assessed as pathological changes in lung at 2 to 5 mg/kg, iv administered via tail vein every 2 days for 16 days by H and E staining based analysis; format: organism-based; conditions: in vivo, 384 h, dose 2-5 mg/kg, time 16 day
[21] = tested on: MDA-MB-231; assay: Induction of ferroptosis in human MDA-MB-231 cells assessed as reduction in GPX4 protein expression at 0 to 1.5 uM measured after 48 hrs by Western blot analysis; format: functional, cell-based; conditions: dose 0-1.5 µM
[22] = tested on: MDA-MB-231; assay: Inhibition of cell migration in human MDA-MB-231 cells at 0 to 1.5 uM measured after 48 hrs by crystal violet staining based microscopic analysis; format: functional; conditions: dose 0-1.5 µM
[23] = tested on: MDA-MB-231; assay: Antitumor activity against human MDA-MB-231 cells xenografted in female Balb/c mouse assessed as reduction in tumor weight at 2 mg/kg, iv administered via tail vein every 2 days for 16 days relative to control; format: functional; design: scale not given: the % may be the effect or the level left; conditions: time 16 day
[24] = organism: Homo sapiens; assay: Binding affinity to antisense i-hTERT DNA assessed as change in gibbs free energy at 400 uM by ITC analysis
[25] = tested on: MDA-MB-231; assay: Induction of telomere dysfunction in human MDA-MB-231 cells assessed as telomer length shortening effect at 0.2 uM measured after 10 days by qRT-PCR analysis; format: functional, cell-based; conditions: time 10.0 day
[26] = Upregulation of NFATC4 gene expression in human MDA-MB-231 cells assessed as fold change at 1 uM measured after 48 hrs by RNA-seq analysis relative to control; format: functional
[27] = tested on: MDA-MB-231; assay: Induction of mitochondrial phagocytosis in human MDA-MB-231 cells assessed as increase in autophagic vesicle formation measured after 48 hrs by MitoTracker Deep Red FM staining based live-cell confocal microscopic analysis; format: functional; conditions: dose 0-1.5 µM
[28] = Selectivity ratio of binding affinity to human TERT G4 DNA to binding affinity to Dt21 ssDNA (unknown origin)
[29] = Toxicity in female Balb/c nude mouse xenografted with human MDA-MB-231 cells assessed as signs of skin tear at 2 to 5 mg/kg, iv administered via tail vein every 2 days for 16 days; format: organism-based; conditions: in vivo, 384 h, dose 2-5 mg/kg, time 16 day
[30] = tested on: Quadruplex DNA; assay: Binding affinity to Telo21 G4 DNA (unknown origin) assessed as thermal stability by measuring change in melting temperature at 400 uM […]; format: nucleic-acid assay
[31] = tested on: DNA; assay: Binding affinity to DNA in telomerase-positive live human MDA-MB-231 cells assessed as reduction in fluorescence at 5 uM preincubated for 10 mins followed by washout and DNase I addition measured after 2 hrs by Hoechst 33342 staining based confocal microscopic analysis; format: cell-based
[32] = tested on: MDA-MB-231; assay: Induction of autophagy in human MDA-MB-231 cells assessed as engulfment of damaged mitochondria by lysosomes by measuring lysosome-mitochondria colocalization at 0 to 1.5 uM measured after 48 hrs by LysoTracker Blue DND-22/MitoTracker Deep Red FM staining based confocal microscopic analysis; format: functional, cell-based; conditions: dose 0-1.5 µM
[33] = tested on: Quadruplex DNA; assay: Binding affinity to VEGF G4 DNA (unknown origin) assessed as thermal stability by measuring change in melting temperature at 400 uM […]; format: nucleic-acid assay
[34] = tested on: MDA-MB-231; assay: Cytotoxicity against human MDA-MB-231 cells assessed as inhibition of cell growth incubated for 48 hrs in presence of TBHP by MTT assay; format: functional, cell-based; conditions: MDA-MB-231, 48 h
[35] = Upregulation of FTL gene expression in human MDA-MB-231 cells assessed as fold change at 1 uM measured after 48 hrs by RNA-seq analysis relative to control; format: functional
[36] = biological target: DNA; assay: Binding affinity to Ds26 duplex DNA (unknown origin) assessed as dissociation constant by ITC analysis; format: nucleic-acid assay
[37] = tested on: MDA-MB-231; assay: Induction of mitochondrial dysfunction in human MDA-MB-231 cells assessed as downregulation of mitochondrial respiratory complex I-NDUFB8 expression incubated for 48 hrs by Western blot analysis; format: functional, cell-based; conditions: dose 0-1.5 µM

With `C[n+]1c(/C=C/c2c[nH]c3ccccc23)cc(/C=C2\Sc3ccccc3N2CCCN2CCC(C(F)(F)F)CC2)c2ccccc21.[I-]` the Kd [1] was 2.79 µM, the “fold change (FC)” value [2] was over 2 and the Kd [3] was 3.61 µM. For the same compound, the IC50 [4] was 1.2 µM, the Activity [5] was “Active” and the Activity [6] was “Active”. For the same compound, the Activity [7] was “Active”, the ΔTm [8] was 6.4 °C and the deltaG [9] was -7.05 kcal/mol. The Activity [10] was “Dose-Dependent Effect”, the Activity [11] was “Active” and the Activity [12] was “Non-Toxic”. For the same compound, the Kd [13] was 6.8 µM, the IC50 at 48 h [14] was 8.7 µM and the Drug uptake [15] was “Active”. For the same compound, the Activity [16] was “Active”, the deltaG [17] was -6.45 kcal/mol and the Activity [18] was “Active”. The deltaH [19] was -1.32 kcal/mol, the Activity [20] was “Non-Toxic” and the Activity [21] was “Active”. For the same compound, the inhibition [22] was “Active”, the Activity [23] was 48.7% and the deltaG [24] was -7.58 kcal/mol. The Activity [25] was “Active”, the “fold change (FC)” value [26] was over 2 and the Activity [27] was “Active”. For the same compound, the Selectivity ratio [28] was 18, the Activity [29] was “Non-Toxic” and the ΔTm [30] was 8.85 °C. For the same compound, the Activity [31] was “Active”, the Activity [32] was “Active” and the ΔTm [33] was 0.72 °C. For the same compound, the IC50 [34] was 0.67 µM, the “fold change (FC)” value [35] was over 2 and the Kd [36] was 18.9 µM. For the same compound, the Activity [37] was “Dose-Dependent Effect”.

Reference: ChEMBL document CHEMBL5550185, “Targeting hTERT Promoter G-Quadruplex DNA Structures with Small-Molecule Ligand to Downregulate hTERT Expression for Triple-Negative Breast Cancer Therapy” (J Med Chem, 2024)
